For series [1] the following is noted: cited from earlier work.
The conditions of series [2]: cited from earlier work; for Cardiotoxic effects: reported clinical cardiotoxic effects of the repurposed drug, 10a,b, 10c, 41, 42.
Series [3] deals with hCMs. Put plainly: Mitochondrial (MitoSox) and intracellular (DCFH-DA) ROS measurement in hCMs. The format is cell-based, human. Conditions: remdesivir 10 μM; Asta 10 μM, Vc 50 μg/ml, Vb1 10 μg/ml, NAC 1 mM, GSH 25 μg/ml; 4 or 6 days. The procedure: Mitochondrial‐associated ROS and intracellular ROS were measured using MitoSox Red Mitochondrial Superoxide Indicator (M‐36008, ThermoFisher) and DCFH‐DA (S0033S, Beyotime), respectively. For mitochondrial‐associated ROS measurement, hCMs were loaded with 4 × 10^−6 M MitoSox dye in Hanks' balanced salt solution buffer for 15 min at 37 °C and washed twice with PBS. The MitoSox fluorescence (excitation/emission = 510/580 nm) was detected and quantified by the Operetta CLS High‐Content Analysis System. For intracellular ROS measurement, hCMs were loaded with 10 × 10^−6 M DCFH‐DA in serum‐free medium for 20 min at 37 °C and washed twice with serum‐free medium. The DCFH fluorescence (excitation/emission = 488/525 nm) was detected and quantified by the Operetta CLS High‐Content Analysis System.

The mark [4] stands for this setting: read-out: C max, maximum plasma concentration, ref U.S. FDA or published literature.

Read-outs that look alike come from different tables or passages of the source.

Consider `C[C@H]1[C@H](OC(=O)CCC(=O)O)O[C@@H]2O[C@@]3(C)CC[C@H]4[C@H](C)CC[C@@H]1[C@@]24OO3` [Artesunate, artesunate], for which, in series [1] (in vivo), the Cmax is 0.17 µM.

For `CC[C@H]1OC(=O)[C@H](C)[C@@H](O[C@H]2C[C@@](C)(OC)[C@@H](O)[C@H](C)O2)[C@H](C)[C@@H](O[C@@H]2O[C@H](C)C[C@H](N(C)C)[C@H]2O)[C@](C)(O)C[C@@H](C)CN(C)[C@H](C)[C@@H](O)[C@]1(C)O` [Azithromycin, azithromycin], in series [2], the Cardiotoxic effects result is “Ventricular arrhythmias^[ [42] ^]”. In addition, the Cmax in series [1] (setting [4]) is 0.67 µM.

With `CCS(=O)(=O)N1CC(CC#N)(n2cc(-c3ncnc4[nH]ccc34)cn2)C1` [Baricitinib, baricitinib], in series [1] (setting [4]), the Cmax is 3.69 µM. For the molecule `Cc1c(-c2ccc(-c3ccccc3F)cc2)nc2ccc(F)cc2c1C(=O)O` [Brequinar, brequinar], in series [1] (in vivo), the Cmax was 16 µM.

As to `CCN(CC)CCCC(C)Nc1ccnc2cc(Cl)ccc12` (stereo not shown) [Chloroquine, chloroquine], the Cmax in series [1] (setting [4]) was 1.17 µM. With `CC(C)CN(C[C@@H](O)[C@H](Cc1ccccc1)NC(=O)O[C@H]1CO[C@H]2OCC[C@H]21)S(=O)(=O)c1ccc(N)cc1` [Darunavir, darunavir], in series [1] (setting [4]), the Cmax was 12.7 µM. In the case of `NC(=O)c1nc(F)c[nH]c1=O` [Favipiravir, favipiravir], in series [1] (in vivo), the Cmax is 115 µM. On to `COCCCC/C(=N\OCCN)c1ccc(C(F)(F)F)cc1` [Fluvoxamine, fluvoxamine], for which, in series [1] (setting [4]), the Cmax was 0.73 µM. For `CCN(CCO)CCCC(C)Nc1ccnc2cc(Cl)ccc12` (stereo not shown) [Hydroxychloroquine, hydroxychloroquine], the Cardiotoxic effects entry in series [2] was “QTc prolongation^[ [41] ^]”. Further, the Cmax in series [1] (in vivo) is 1.35 µM. Turning to `C[C@H]1C[C@@H]2[C@H]([C@@H](O)C[C@@]3(C)[C@H]2CC[C@]3(O)C(=O)CO)[C@@]2(C)C=CC(=O)C=C12` [Methylprednisolone, methylprednisolone], the Cmax in series [1] (in vivo) is 1.26 µM. Regarding `CC(C)C(=O)OC[C@H]1O[C@@H](n2ccc(NO)nc2=O)[C@H](O)[C@@H]1O` [Molnupiravir, molnupiravir], the Cmax in series [1] (in vivo) was 10 to 15 µM. As to `CC(C)(C)[C@H](NC(=O)C(F)(F)F)C(=O)N1C[C@H]2[C@@H]([C@H]1C(=O)N[C@H](C#N)C[C@@H]1CCNC1=O)C2(C)C` [Nirmatrelvir, nirmatrelvir], the Cmax in series [1] (in vivo) is 6.66 µM. Consider `CC(=O)Oc1ccccc1C(=O)Nc1ncc([N+](=O)[O-])s1` [Nitazoxanide, nitazoxanide], for which the Cmax in series [1] (in vivo) was 17.5 µM.

For `CC(=O)N[C@@H](CS)C(=O)O` [N‐acetylcysteine], the “could alter the level of ROS in hCMs when co-stimulated with remdesivir” value (“could alter the level of ROS in hCMs” for short) in series [3] was “neither”. Turning to `CC1(C)C(=O)N(c2ccc(C#N)c(C(F)(F)F)c2F)C(=S)N1c1ccc(CCCc2ncco2)nc1` [Proxalutamide, proxalutamide], the Cmax in series [1] (setting [4]) is 29 µM. On to `N#CC[C@H](C1CCCC1)n1cc(-c2ncnc3[nH]ccc23)cn1` [Ruxolitinib, ruxolitinib], for which the Cmax in series [1] (in vivo) was 7.1 µM. With `C[C@@H]1CCN(C(=O)CC#N)C[C@@H]1N(C)c1ncnc2[nH]ccc12` [Tofacitinib, tofacitinib], the Cmax in series [1] (setting [4]) was 0.135 µM. In the case of `CCOC(=O)C1=C[C@@H](OC(CC)CC)[C@H](NC(C)=O)[C@@H](N)C1` [oseltamivir], in series [2], the “associated adverse cardiac effect” value is “tachycardia”. For `N[C@@H](CCC(=O)N[C@@H](CS)C(=O)NCC(=O)O)C(=O)O` [reduced L‐Glutathione], the “could alter the level of ROS in hCMs” value in series [3] was “neither”. As to `Cc1ncc(C[n+]2csc(CCO)c2C)c(N)n1` [vitamin B1], in series [3], the “could alter the level of ROS in hCMs” value is given as “neither”. `O=C1O[C@H]([C@@H](O)CO)C(O)=C1O` [vitamin C]: the “could alter the level of ROS in hCMs” value in series [3] was “neither”. As for ivermectin, the “associated adverse cardiac effect” value in series [2] is given as “tachycardia”. The Cmax in series [1] (setting [4]) was 0.049 µM.

The values are drawn from publication PMC9539280 (Advanced Science, 2022).
